Results on 1 compound are retold here after US20190032014A1, “USING MICROBIOTA METABOLITES TO DIFFERENTIATE NAÏVE T-CELLS AND RELATED METHODS TO INDUCE OR PREVENT INFLAMMATORY CONDITIONS” (THE TEXAS A&M UNIVERSITY SYSTEM, priority 2016, published 2019).

“Also recorded” adds a separate entry of the source. Where two headings read alike, the source gives them in different places.

One experiment concerns CD4+ CD25− naïve T cells. The experiment is described as follows: In vitro naïve T cell differentiation, Th1-skew (IFN-γ+). Format: cell-based, C57BL/6 mice. The following applies: Th1 skewing conditions. How it is done:
When naïve CD4+ CD25− cells were cultured 72 hours in αCD3/28 coated wells with Th0-, Th1- or Th2-skew cytokines and indole or solvent control, followed by stimulation with PMA, Ionomycin and Golgi Plug for the last 5 hours of culture, no effect on the % of Th1 and Th2 cells was observed (in contrast to the significant effect that indole has on Treg and Th17 cells; see FIGS. 2A and 2B).
CD4+ CD25− T cells were isolated to high purity (>98%) from the pooled spleen and mesenteric lymph nodes of C57BL/6 mice (Jackson Labs) with a BD FACS Aria II flow cytometer. Fc Block (BD), αCD4-efluor450 (eBioscience clone GK1.5) and αCD25-PECy7 (eBioscience clone PC61.5) antibodies were used for staining before sorting.
For Th1-skew: 5 ng/mL IL-12 (Peprotech cat. #210-12) and 10 µg/mL αIL-4 (BioXCell clone 11B11) were added to culture. For Th2-skew: 10 ng/mL IL-4 (Peprotech) and 10 μg/mL αIFN-γ (BioXCell clone R4-6A2) were added to culture. For Th17-skew: 10 ng/mL IL-6 (Peprotech), 5 ng/mL IL-23 (R&D), 0.5 ng/mL TGF-β (Peprotech), 10 μg/mL al-4 (BioXCell clone 11B11), and 10 μg/mL αIFN-γ (BioXCell clone R4-6A2) were added to culture. For Treg-skew: 2 ng/mL TGF-β (Peprotech) and 100 U/mL IL-2 (Roche) were added to culture. Sodium Propionate, sodium acetate, sodium butyrate and sodium chloride (all from Sigma-Aldrich) were solubilized in media and added to culture. Indole was solubilized in DMF (both from Sigma-Aldrich) at 2M and brought to final concentration in media. MGCD0103 (Selleck Chemicals) was solubilized in DMF at 2 mM and brought to final concentration in media. A 0.05% DMF solvent control was used for all experiments.

In another experiment the test system is DSS colitis. Briefly: DSS colitis model. The settings on record: 5% DSS 7 days, then indole 7 days; wild-type vs Rag-deficient mice.
The test system of another experiment is NF-κB. The settings on record: intestinal epithelial cells (IECs); Bansal et al. 2010; cited from earlier work.
The subject of experiment [1] is wild-type or AhR KO T cells. The experiment is described as follows: T cell differentiation in wild-type vs AhR KO T cells. Format: cell-based, mice. Here is the method: The aryl hydrocarbon receptor (AhR) is implicated in the differentiation of Treg and Th17 cells. The role of AhR was assessed with respect to indole's effect on Treg augmentation. Wild-type and AhR KO naïve T-cells were conditioned with increasing amounts of indole and then assessed for % of FoxP3 expression. […] Additionally, the role of AhR was assessed with respect to indole's effect on Th17 inhibition.
The AhR knockout was further investigated for iTreg homing markers, CD62L and α4β7, as described above.
Next, the AhR knockout was further investigated for the impact of AhR on 5-HI-mediated T cell differentiation.

Experiment [2] addresses T1, aryl hydrocarbon receptor (AhR) (Homo sapiens, UniProt P35869).
T1 sequence (P35869 11-848): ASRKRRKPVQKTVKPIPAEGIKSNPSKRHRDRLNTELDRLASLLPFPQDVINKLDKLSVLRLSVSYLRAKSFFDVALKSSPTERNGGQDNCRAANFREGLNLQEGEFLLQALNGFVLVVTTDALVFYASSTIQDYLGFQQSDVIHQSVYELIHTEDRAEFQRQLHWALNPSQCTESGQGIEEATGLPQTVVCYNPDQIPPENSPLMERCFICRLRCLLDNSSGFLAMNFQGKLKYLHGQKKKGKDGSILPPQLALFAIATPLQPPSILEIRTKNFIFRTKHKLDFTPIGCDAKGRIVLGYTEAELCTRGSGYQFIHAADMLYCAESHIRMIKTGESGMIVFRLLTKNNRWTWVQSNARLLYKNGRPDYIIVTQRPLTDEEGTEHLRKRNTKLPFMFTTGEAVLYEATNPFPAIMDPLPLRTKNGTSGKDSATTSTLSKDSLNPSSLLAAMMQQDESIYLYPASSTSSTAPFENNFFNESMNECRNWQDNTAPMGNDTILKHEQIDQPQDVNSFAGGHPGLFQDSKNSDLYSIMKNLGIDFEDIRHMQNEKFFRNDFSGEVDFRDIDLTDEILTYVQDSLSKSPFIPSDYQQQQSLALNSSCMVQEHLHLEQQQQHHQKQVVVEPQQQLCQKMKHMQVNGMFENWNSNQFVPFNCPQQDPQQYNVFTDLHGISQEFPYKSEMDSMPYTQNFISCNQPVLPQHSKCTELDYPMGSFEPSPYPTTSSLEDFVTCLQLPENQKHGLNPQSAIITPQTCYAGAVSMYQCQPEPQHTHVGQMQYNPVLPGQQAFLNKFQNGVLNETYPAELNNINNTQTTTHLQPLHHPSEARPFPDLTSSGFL
The following applies: intestinal epithelial cells; Jin et al. 2014; cited from earlier work.

Experimental for DSS colitis: FIG. 32A: Wild-type C57B16 mice were treated with 5% DSS, or not, in drinking water for 7 days. […] Individual mouse weight was recorded daily throughout experiment as a measure of inflammation. FIG. 32B: Mice were treated as in FIG. 32A, only mice were Rag-deficient mice, which lack lymphocytes (T- and B-cells).
For FIG. 32A, wild-type C57B16 mice were treated with 5% DSS, or not, in drinking water for 7 days. […] Individual mouse weight was recorded daily throughout experiment as a measure of inflammation. For FIG. 32B, Rag-deficient mice, which lack lymphocytes (T- and B-cells), were treated as in FIG. 32A and individual weight was recorded.
Experimental for iTregs: For example, TDMM- and control-induced Treg cultures from CD4+ CD25− GFP− naïve T cells of FOXP3EGFP mice are sorted based on GFP fluorescence. GFP+ cells (˜1×10^6 cells/mL) are cultured in the presence of pro-inflammatory cytokines IL-1, IL-6, IL-21 and IL-23 ±TCR stimulation on an anti-CD3/CD28 mAb coated plate for 24, 48 and 72 hours [Yang, X. O., et al., Immunity 29(1): p. […] Next, the stability (as measured by expression of FOXP3, RORγT, TGF-β, IL-10, IL-35 and IL-17) of TDMM-conditioned Tregs is analyzed compared to control-induced Tregs by ELISA of supernatants or 4 h treatment with Golgi plug (for cytokine staining) and subsequent intracellular staining with fluorophore-conjugated mAbs and flow cytometry.

For `c1ccc2[nH]ccc2c1` [Indole, indole], in the experiment on CD4+ CD25− naïve T cells (regardless of 5-HI presence), the “% IFN-γ+ cells, indole combined with butyrate” value was “the % IFN-γ+ cells decreases”. The “% IFN-γ+ cells, indole combined with 5-HI” value with CD4+ CD25− naïve T cells (vs 5-HI alone) is “negated when 5-HI is combined with indole”. Besides, in the experiment on CD4+ CD25− naïve T cells (vs solvent control), the “effect on % Th1 cells (IFN-γ+)” value was “no effect; also recorded: did not influence the development of Th1 and Th2 cells; also recorded: did not affect the Th1 skewing of Th1 cells”. Further, the “colitis (mouse weight as measure of inflammation)” value in the experiment on DSS colitis was “inhibits colitis in a T-cell-dependent manner”. The “NF-κB activation and indicators of inflammation” value in the experiment with NF-κB was “inhibits NF-κB activation and attenuates indicators of inflammation”. In addition, the “% IL-17+ in wild-type vs AhR KO T cells” value in experiment [1] is reported as “decreased significantly more in wild-type over AhR KO T cells”. For the same compound, the “AhR dependence of effects (AhR knockout mice, unpublished data)” value in experiment [1] was “some of the effects of indole are not AhR dependent”. In experiment [1] (increasing amounts of test substance), the “FoxP3+ % in wild-type vs AhR KO T cells” value is reported as “increased significantly more in wild-type over AhR KO T cells”. Further, the “expression of CD62L and α4β7 in FoxP3+ wild-type or AhR KO T cells” value in experiment [1] (with or without RA) is given as “roughly equivalent with only minor differences”. For the same compound, the AhR agonist/antagonist activity entry in experiment [2] is “acts as both an agonist and antagonist”. Moreover, the FoxP3 expression in the experiment with iTregs (control (DMF induced) iTregs in the presence of indole, after TCR stimulation (αCD3/28), without indole 9.3%) was determined as 26.1%; with iTregs (control (DMF induced) iTregs in the presence of indole, first value, before TCR stimulation) it was 52.8%; with iTregs (indole-induced iTregs cultured three days with 1 mM indole, first value) it was 64.2%; with iTregs (indole-induced iTregs cultured three days with 1 mM indole, second value, after TCR stimulation), 52.2%; in the experiment on iTregs (indole-induced iTregs cultured three days with DMF, first value), 63%; in the experiment with iTregs (indole-induced iTregs cultured three days with DMF, second value, after TCR stimulation) it was 24.9%.
